Source: BindingDB's records for doi:10.7270/Q2GH9GBT (Nmmlsc, 2008)
Counter-ions that a name gives are not always drawn.

Each compound was assayed against T1, Bcl-2-like protein 10 [11-204] (Homo sapiens, UniProt Q9HD36) (assay: regulators of Bim-Bcl-B binding, dose response, biochemical, multiplexed, bead-based flow cytometry, human (AID 1327)). Conditions: not given.
T1 construct: 11-204
T1 sequence (Q9HD36 whole entry): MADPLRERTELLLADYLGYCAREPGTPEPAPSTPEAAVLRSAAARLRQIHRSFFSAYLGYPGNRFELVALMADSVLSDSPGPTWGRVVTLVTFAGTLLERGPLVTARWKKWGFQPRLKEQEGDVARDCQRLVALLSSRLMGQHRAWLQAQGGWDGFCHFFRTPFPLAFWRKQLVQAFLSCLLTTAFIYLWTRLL
Work on `Cc1cccc(OCC(=O)NCC(=O)NN=Cc2cc(Br)ccc2OCc2ccccc2)c1` [N-[(5-bromanyl-2-phenylmethoxy-phenyl)methylideneamino]-2-[2-(3-methylphenoxy)ethanoylamino]ethanamide] yielded an EC50 of 5.53 µM.
`Cc1nc2ncccn2c1-c1csc(Nc2ccc(O)cc2)n1` gave an EC50 of 0.12 µM.
For `Clc1nc(NCc2cccnc2)nc(N2CCOCC2)n1` [MLS000121154], the EC50 was 8.51 µM.
With `COc1cccc2c(SCC(=O)NN=Cc3ccc(O)cc3O)cc(C)nc12` [N'-[(E)-(2-hydroxy-4-oxo-1-cyclohexa-2,5-dienylidene)methyl]-2-[(8-methoxy-2-methyl-4-quinolinyl)thio]acetohydrazide] the EC50 was 9.13 µM.
`COc1cccc(CN=Nc2nn3cnnc3c3ccccc23)c1` [N-[1-(3-Methoxy-phenyl)-meth-(E)-ylidene]-N'-[1,2,4]triazolo[3,4-a]phthalazin-6-yl-hydrazine] was tested, and the EC50 was 0.98 µM.
For `Nc1ccc(N2CCN(CCCCN3C(=O)C4CCCN4C3=O)CC2)cc1` (stereo not given) [2-[4-[4-(4-aminophenyl)-1-piperazinyl]butyl]-5,6,7,7a-tetrahydropyrrolo[1,2-c]imidazole-1,3-dione;hydrate;hydrochloride], the EC50 was 52.5 µM.
Work on `OCCN1CCN(CCCc2c3c(cc4c2CCC4)CCC3)CC1` [MLS000698424] yielded an EC50 of 15.5 µM.
In the case of `Clc1ccc2c(N=NCc3ccccc3Br)ccnc2c1` [MLS000336087], the EC50 is reported as 9.57 µM.
`O=c1c2c(n3nnnc3n1Cc1ccccc1)-c1ccccc1CC21CCCC1` [MLS000030575] was tested, and the EC50 was 5.52 µM.
`Clc1nc2ccccc2cc1CN=Nc1nc2ccccc2[nH]1` [SMR000221568] was tested, and the EC50 was 35.7 µM.

Same assay, conditions: inactive by the depositor's call
`O=C(Nc1ccc2nc(-c3ccco3)c(-c3ccco3)nc2c1)N1CCCCCC1` was tested, and the EC50 was 33.3 µM.
For `COc1ccc(C2=Nn3c(nnc3-c3ccccn3)SC2)cc1OC` [6-(3,4-dimethoxyphenyl)-3-(2-pyridinyl)-7H-[1,2,4]triazolo[3,4-b][1,3,4]thiadiazine], the EC50 was 6.18 µM.
Work on `CCOC(=O)c1ccc(Nc2nc(C(=O)OCC)nc3ccccc23)cc1` yielded an EC50 of 2.18 µM.
With `Cc1nnc2ccc(-c3cccc(NC(=O)c4ccco4)c3)nn12` [SMR000324305] the EC50 was 3.53 µM.
`COc1ccc(CCNC(=O)c2ccc3nc(-c4ccco4)c(-c4ccco4)nc3c2)cc1OC` [N-[2-(3,4-dimethoxyphenyl)ethyl]-2,3-di-2-furylquinoxaline-6-carboxamide] gave an EC50 of 52.4 µM.
For `Cc1nc2ncccn2c1-c1csc(Nc2ccccc2)n1` [4-(2-methyl-3-imidazo[1,2-a]pyrimidinyl)-N-phenyl-2-thiazolamine], the EC50 was 1.38 µM.
For `O=C(Nc1ccc2nc(-c3ccco3)c(-c3ccco3)nc2c1)NC1CC1` [SMR000118524], the EC50 was 45.1 µM.
For `CCN(CC)c1ccc(-c2nn3c(-c4ccccc4OC)nnc3s2)cc1`, the EC50 was 21.7 µM.
`COCCCn1c(N)c(C(=O)Nc2sc3c(c2C(=O)OC)CCCC3)c2nc3ccccc3nc21` [MLS000595323] gave an EC50 of 1.39 µM.
Compound `C#CCn1cc(C=C2C(=O)c3ccccc3C2=O)c2ccccc21` [SMR000196125] has an EC50 of 17.8 µM.
For `COc1ccccc1-n1c(-c2ccc(Cl)cc2)c[nH]c1=S` [4-(4-chlorophenyl)-3-(2-methoxyphenyl)-1H-imidazole-2-thione], the EC50 was 11.4 µM.
Compound `CCOCCCn1c(N)c(C(=O)Nc2sc3c(c2C(=O)OC)CCCC3)c2nc3ccccc3nc21` has an EC50 of 1.28 µM.
With `O=C(NCCCN1CCN(CCCNC(=O)c2cc([N+](=O)[O-])ccc2Cl)CC1)c1cc([N+](=O)[O-])ccc1Cl` [2-chloranyl-N-[3-[4-[3-[(2-chloranyl-5-nitro-phenyl)carbonylamino]propyl]piperazin-1-yl]propyl]-5-nitro-benzamide] the EC50 was 43.4 µM.
`O=C1NC(=O)C2(Cc3c(nc4ccccn4c3=O)N3CCCCCC32)C(=O)N1Cc1ccccc1` (stereo not given) [MLS000083668] showed an EC50 of 18.2 µM.
Work on `O=C(NCc1ccccc1)c1ccc2nc(-c3ccco3)c(-c3ccco3)nc2c1` [2,3-bis(furan-2-yl)-N-(phenylmethyl)quinoxaline-6-carboxamide] yielded an EC50 of 20.6 µM.
